Experimental findings from patent US4343807A, “Derivatives of clavulanic acid, a process for their preparation and their use” (Beecham Group Limited, priority 1979, dated 1982) are described below.

In brackets after ≈: the same amount, converted by molar mass.

Broadly, the MIC is the lowest concentration that inhibits growth of the organism. Lower therefore signals inhibition by little substance.

Holding throughout (type): cell-based
Test [1] relates to Staph. Aureus Russell. The test is described as follows: MIC by standard microtitre technique (dilution in tryptone soy broth). To be noted: Staphylococcus aureus, substance alone. The method, then: (§1) By a standard microtitre technique the MIC values for ampicillin alone, ampicillin and 9-N-(2-N-morpholinoethyl)aminodeoxyclavulanic acid and 9-N-(2-N-morpholinoethyl)aminodeoxyclavulanic acid alone were determined.
(§2) MIC μg/ml (dilution in tryptone soy broth)
(§3) By a standard microtitre technique the MIC values for ampicillin alone, ampicillin and 9-N-[3'-N-(2"-pyrrolidinoyl)propyl]aminodeoxyclavulanic acid and 9-N[3'-N-(2"-pyrrolidinoyl)propyl]aminodeoxyclavulanic acid alone were determined.

For a further test, the system named is Kleb Aergenes E70. The test is described as above. To be noted: Klebsiella aerogenes, substance alone. As to the method: as §1, §2, §3
In the next test the test system is E. Coli JT39. The description is as above. To be noted: Escherichia coli, substance alone. The method, then:
as §1, §2, §3

The subject of test [2] is Staph. Aureus Russell. The test is described as follows: Antibacterial activity, MIC (dilution in blood agar-heavy inoculum). The following applies: Staphylococcus aureus. The source says:
(§4) Antibacterial activity of 9-N-[3'-N-(2"-pyrrolidinonyl)propyl]aminodeoxyclavulanic acid
(§5) Dilution in blood agar-heavy inoculum

Another test concerns Strep. pyogenes. The description is as above. The following applies: Streptococcus pyogenes.
Text: as §4, §5

For a further test, the system named is Strep. pneumoniae. The description is as above. To be noted: Streptococcus pneumoniae.
Text: as §4, §5

A further test concerns Staph. aureus Oxford. Described as above. To be noted: Staphylococcus aureus.
Text: as §4, §5

Regarding `CC1(C)S[C@@H]2[C@H](NC(=O)[C@H](N)c3ccccc3)C(=O)N2[C@H]1C(=O)O` [Ampicillin, reference compound], the minimal inhibitory concentration (MIC) in the test on Staph. Aureus Russell [1] is 1000 µg/mL (≈ 2860 µM); against Kleb Aergenes E70, 1000 µg/mL (≈ 2860 µM); in the test on E. Coli JT39 it was > 2000 µg/mL.

`O=C(O)[C@H]1/C(=C/CNCCN2CCOCC2)O[C@@H]2CC(=O)N21` [Example 1, 9-N-(2'-N-Morpholinoethyl)aminodeoxyclavulanic acid]: the MIC was 16 µg/mL (≈ 51.4 µM) with Staph. Aureus Russell [1], 500 µg/mL (≈ 1610 µM) in the test on Kleb Aergenes E70 and 62 µg/mL (≈ 199 µM) in the test on E. Coli JT39.

`O=C(O)[C@H]1/C(=C/CNCCCN2CCCC2=O)O[C@@H]2CC(=O)N21` [Example 2, 9-N[3'-N-(2"-Pyrrolidinonyl)propyl]aminodeoxyclavulanic acid]: the MIC in the test with Staph. Aureus Russell [1] stood at 16 µg/mL (≈ 49.5 µM); in the test on Kleb Aergenes E70 it was 500 µg/mL (≈ 1550 µM); in the test on E. Coli JT39, 62 µg/mL (≈ 192 µM); in the test with Staph. Aureus Russell [2], 5 µg/mL (≈ 15.5 µM); against Strep. pyogenes, 1.25 µg/mL (≈ 3.87 µM); in the test with Strep. pneumoniae, 5 µg/mL (≈ 15.5 µM). In the test with Staph. aureus Oxford, this molecule returned a minimum inhibitory concentration (MIC) of 5 µg/mL (≈ 15.5 µM).
